# Counter-ions that a name gives are not always drawn.
# Target: T1, recombinant guanylate cyclase reporter cell line (Rattus norvegicus, UniProt P19686+P20595)
# T1 construct: expressed in transfected cells
# T1 sequence (P19686 1-690): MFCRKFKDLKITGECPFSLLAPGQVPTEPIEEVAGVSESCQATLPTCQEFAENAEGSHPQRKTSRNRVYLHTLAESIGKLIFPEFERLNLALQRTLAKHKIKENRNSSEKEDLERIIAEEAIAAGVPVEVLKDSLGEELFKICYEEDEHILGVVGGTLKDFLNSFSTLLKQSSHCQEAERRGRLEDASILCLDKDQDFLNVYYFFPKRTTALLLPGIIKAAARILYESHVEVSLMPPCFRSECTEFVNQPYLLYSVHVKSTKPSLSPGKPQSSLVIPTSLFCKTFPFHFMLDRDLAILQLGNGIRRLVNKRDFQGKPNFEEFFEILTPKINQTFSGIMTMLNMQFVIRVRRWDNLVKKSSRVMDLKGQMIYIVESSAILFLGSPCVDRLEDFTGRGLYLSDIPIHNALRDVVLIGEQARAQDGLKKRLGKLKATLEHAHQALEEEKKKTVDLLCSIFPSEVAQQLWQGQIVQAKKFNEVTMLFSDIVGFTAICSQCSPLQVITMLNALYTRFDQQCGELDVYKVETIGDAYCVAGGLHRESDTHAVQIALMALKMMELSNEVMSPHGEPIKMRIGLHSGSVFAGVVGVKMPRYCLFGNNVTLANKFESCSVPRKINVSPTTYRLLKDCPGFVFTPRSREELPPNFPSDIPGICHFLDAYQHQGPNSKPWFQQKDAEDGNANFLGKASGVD
# T1 sequence (P20595 1-619): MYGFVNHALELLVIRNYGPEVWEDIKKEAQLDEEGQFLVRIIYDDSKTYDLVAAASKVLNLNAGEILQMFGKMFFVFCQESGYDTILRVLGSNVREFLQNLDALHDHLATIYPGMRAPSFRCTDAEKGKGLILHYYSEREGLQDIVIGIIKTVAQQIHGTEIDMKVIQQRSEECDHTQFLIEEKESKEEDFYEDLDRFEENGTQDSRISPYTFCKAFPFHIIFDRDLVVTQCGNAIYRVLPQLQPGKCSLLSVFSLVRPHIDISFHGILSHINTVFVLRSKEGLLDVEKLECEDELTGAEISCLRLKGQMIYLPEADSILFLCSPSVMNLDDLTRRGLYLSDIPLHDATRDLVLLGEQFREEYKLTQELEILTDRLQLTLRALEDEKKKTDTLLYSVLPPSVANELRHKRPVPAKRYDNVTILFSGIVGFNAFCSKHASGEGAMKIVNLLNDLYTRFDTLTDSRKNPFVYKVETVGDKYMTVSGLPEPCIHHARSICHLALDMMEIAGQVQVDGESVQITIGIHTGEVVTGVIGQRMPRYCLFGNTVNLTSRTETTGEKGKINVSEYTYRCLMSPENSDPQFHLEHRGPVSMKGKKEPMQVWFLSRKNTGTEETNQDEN
# Assay: Effect on a recombinant guanylate cyclase reporter cell line (B-2)
# Type: cell-based
# Conditions: in some cases mean values for individual determinations
# Method: B-2. Effect on a Recombinant Guanylate Cyclase Reporter Cell Line
# The cellular effect of the inventive compounds is determined using a recombinant guanylate cyclase reporter cell line, as described in F. Wunder et al., Anal. Biochem. 339, 104-112 (2005).
# Representative MEC values (MEC=minimum effective concentration) for the inventive compounds are shown in the table below (in some cases as mean values for individual determinations): […]
row,Structure (SMILES),MEC (minimum effective concentration)
1,"Cc1cc(OCc2c(F)ccc(F)c2F)n2nc(C)c(C(=O)NC(CCC(F)(F)C(F)(F)F)C(C)(C)O)c2c1 (single isomer, unassigned; ent-2) [Example 22, ent-2,5-Dimethyl-N-(6,6,7,7,7-pentafluoro-2-hydroxy-2-methylheptan-3-yl)-7-[(2,3,6-trifluorobenzyl)oxy]pyrazolo[1,5-a]pyridine-3-carboxamide]",0.1 µM
2,"Cc1cc(OCc2c(F)cccc2F)n2nc(C)c(C(=O)NC(C#N)c3ccc(Cl)cc3)c2c1 (racemic) [Example 134, rac-N-[(4-Chlorophenyl)(cyano)methyl]-7-[(2,6-difluorobenzyl)oxy]-2,5-dimethylpyrazolo[1,5-a]pyridine-3-carboxamide]",0.3 µM
3,"Cc1cc(OCc2c(F)cccc2F)n2nc(C)c(C(=O)NCC(C)(N)CF)c2c1 (single isomer, unassigned) [Example 41, ent-N-(2-Amino-3-fluoro-2-methylpropyl)-7-[(2,6-difluorobenzyl)oxy]-2,5-dimethylpyrazolo[1,5-a]pyridine-3-carboxamide]",0.3 µM
4,"Cc1cc(OCc2c(F)cccc2F)n2nc(C)c(C(=O)NC3CCCc4ccccc43)c2c1 (racemic) [Example 138, rac-7-[(2,6-Difluorobenzyl)oxy]-2,5-dimethyl-N-(1,2,3,4-tetrahydronaphthalen-1-yl)pyrazolo[1,5-a]pyridine-3-carboxamide]",0.1 µM
5,"Cc1cc(OCc2c(F)cccc2F)n2nc(C)c(C(=O)NC3CCCCNC3)c2c1 (racemic) [Example 127, rac-N-(Azepan-3-yl)-7-[(2,6-difluorobenzyl)oxy]-2,5-dimethylpyrazolo[1,5-a]pyridine-3-carboxamide]",0.3 µM
6,"Cc1cc(OCc2c(F)ccc(F)c2F)n2nc(C)c(C(=O)Nc3cnn(CC(F)(F)F)c3)c2c1 [Example 17, 2,5-Dimethyl-7-[(2,3,6-trifluorobenzyl)oxy]-N-[1-(2,2,2-trifluoroethyl)-1H-pyrazol-4-yl]pyrazolo[1,5-a]pyridine-3-carboxamide]",0.3 µM
7,"Cc1cc(OCc2c(F)cccc2F)n2nc(C)c(C(=O)NC3CCN(C)c4ccccc43)c2c1 (racemic) [Example 75, rac-7-[(2,6-Difluorobenzyl)oxy]-2,5-dimethyl-N-(1-methyl-1,2,3,4-tetrahydroquinolin-4-yl)pyrazolo a]pyridine-3-carboxamide trifluoroacetate]",0.03 µM
8,"Cc1cc(OCc2c(F)cccc2F)n2nc(C)c(C(=O)NC3CCOc4ccccc43)c2c1 (racemic) [Example 87, rac-7-[(2,6-Difluorobenzyl)oxy]-N-(3,4-dihydro-2H-chromen-4-yl)-2,5-dimethylpyrazolo[1,5-a]pyridine-3-carboxamide]",0.3 µM
9,"Cc1cc(OCc2c(F)ccc(F)c2F)n2nc(C)c(C(=O)NC(CO)c3ccc(F)cc3)c2c1 (racemic) [Example 30, rac-N-[1-(4-Fluorophenyl)-2-hydroxyethyl]-2,5-dimethyl-7-[(2,3,6-trifluorobenzyl)oxy]pyrazolo[1,5-a]pyridine-3-carboxamide]",0.1 µM
10,"Cc1cc(OCc2c(F)ccc(F)c2F)n2nc(C)c(C(=O)NCCN3CCOCC3)c2c1 [Example 15, 2,5-Dimethyl-N-[2-(morpholin-4-yl)ethyl]-7-[(2,3,6-trifluorobenzyl)oxy]pyrazolo[1,5-a]pyridine-3-carboxamide]",3.0 µM
11,"CCCC(C)(N)CNC(=O)c1c(C(F)(F)F)nn2c(OCc3c(F)cccc3F)cc(C)cc12 (single isomer, unassigned) [Example 52, ent-N-(2-Amino-2-methylpentyl)-7-[(2,6-difluorobenzyl)oxy]-5-methyl-2-(trifluoromethyl)pyrazolol[1,5-a]pyridine-3-carboxamide trifluoroacetate]",0.3 µM
12,"Cc1cc(OCc2c(F)cccc2F)n2nc(C)c(C(=O)NC(CN)c3ccc4c(c3)OCO4)c2c1 (racemic) [Example 120, rac-N-[2-Amino-1-(1,3-benzodioxol-5-yl)ethyl]-7-[(2,6-difluorobenzyl)oxy]-2,5-dimethylpyrazolo[1,5-a]pyridine-3-carboxamide]",1.0 µM
13,"Cc1cc(OCc2c(F)cccc2F)n2nc(C)c(C(=O)N[C@H]3C[C@H]4CN(C)CCN4C3)c2c1 [Example 113, 7-[(2,6-Difluorobenzyl)oxy]-2,5-dimethyl-N-[(7S,8aS)-2-methyloctahydropyrrolo[1,2-a]pyrazin-7-yl]pyrazolo[1,5-a]pyridine-3-carboxamide]",3.0 µM
14,"Cc1cc(OCc2c(F)cccc2F)n2nc(C)c(C(=O)NC[C@H]3CC[C@H](C(=O)O)CC3)c2c1 [Example 36, trans-4-{[({7-[(2,6-Difluorobenzyl)oxy]-2,5-dimethylpyrazolo[1,5-a]pyridin-3-yl}carbonyl)amino]methyl}cyclohexanecarboxylic Acid]",3.0 µM
15,"CCCC(C)(N)CNC(=O)c1c(C)nn2c(OCc3c(F)cccc3F)cc(CC)cc12 (racemic) [Example 172, rac-N-(2-Amino-2-methylpentyl)-7-[(2,6-difluorobenzyl)oxy]-5-ethyl-2-methylpyrazolo[1,5-a]pyridine-3-carboxamide]",0.3 µM
16,"Cc1cc(OCc2c(F)cccc2F)n2nc(C)c(C(=O)NCC(C)(C)N)c2c1 [Example 1, N-(2-Amino-2-methylpropyl)-7-[(2,6-difluorobenzyl)oxy]-2,5-dimethylpyrazolo[1,5-a]pyridine-3-carboxamide formate]",2 µM
17,"C=Cc1cccc(C(N)CNC(=O)c2c(C)nn3c(OCc4c(F)cccc4F)cc(C)cc23)c1 (racemic) [Example 141, rac-N-[2-Amino-2-(3-vinylphenyl)ethyl]-7-[(2,6-difluorobenzyl)oxy]-2,5-dimethylpyrazolo[1,5-a]pyridine-3-carboxamide]",3.0 µM
18,"Cc1cc(OCc2c(F)cccc2F)n2nc(C)c(C(=O)N[C@H]3c4ccccc4C[C@H]3CO)c2c1 (relative stereo) [Example 143, rel-7-[(2,6-Difluorobenzyl)oxy]-N-[(1R,2R)-2-(hydroxymethyl)-2,3-dihydro-1H-inden-1-yl]-2,5-dimethylpyrazolo[1,5-a]pyridine-3-carboxamide]",0.3 µM
19,"Cc1cc(OCc2c(F)cccc2F)n2nc(C)c(C(=O)NC3CCC(C)(C)c4ccccc43)c2c1 (racemic) [Example 145, rac-7-[(2,6-Difluorobenzyl)oxy]-N-(4,4-dimethyl-1,2,3,4-tetrahydronaphthalen-1-yl)-2,5-dimethylpyrazolo[1,5-a]pyridine-3-carboxamide]",1.0 µM
20,"Cc1cc(OCc2c(F)cccc2F)n2nc(C)c(C(=O)N[C@@H]3CNC[C@@H]3F)c2c1 (relative stereo) [Example 128, rel-7-[(2,6-Difluorobenzyl)oxy]-N-[(3R,4S)-4-fluoropyrrolidin-3-yl]-2,5-dimethylpyrazolo[1,5-a]pyridine-3-carboxamide]",1.0 µM
21,"Cc1cc(OCc2c(F)cccc2F)n2nc(C)c(C(=O)NCCS(N)(=O)=O)c2c1 [Example 61, 7-[(2,6-Difluorobenzyl)oxy]-2,5-dimethyl-N-(2-sulphamoylethyl)pyrazolo[1,5-a]pyridine-3-carboxamide]",10 µM
